From ChEMBL document CHEMBL3991601, “The target landscape of clinical kinase drugs” (Science, 2017)
Calls of active or inactive are those of the source.

Assays:
[1] = biological target: T1, Serine/threonine-protein kinase Chk1 (Homo sapiens, UniProt O14757)
T1 sequence (O14757 whole entry): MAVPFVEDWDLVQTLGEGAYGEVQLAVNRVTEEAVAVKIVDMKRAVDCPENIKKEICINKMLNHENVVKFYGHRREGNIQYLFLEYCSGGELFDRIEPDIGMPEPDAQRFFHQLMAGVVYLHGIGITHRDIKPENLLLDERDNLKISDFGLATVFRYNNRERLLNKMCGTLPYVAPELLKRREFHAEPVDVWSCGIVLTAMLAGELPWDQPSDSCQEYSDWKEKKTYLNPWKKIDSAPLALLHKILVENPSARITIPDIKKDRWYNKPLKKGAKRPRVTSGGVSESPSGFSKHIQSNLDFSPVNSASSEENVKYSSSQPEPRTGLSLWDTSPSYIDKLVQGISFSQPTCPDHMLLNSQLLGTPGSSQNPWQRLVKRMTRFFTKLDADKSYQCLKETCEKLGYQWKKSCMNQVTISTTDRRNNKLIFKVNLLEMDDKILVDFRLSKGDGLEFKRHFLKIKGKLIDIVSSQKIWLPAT

[2] = biological target: Tyrosine-protein kinase SYK (Homo sapiens, UniProt P43405)
[3] = biological target: DnaJ homolog subfamily A member 1 (Homo sapiens, UniProt P31689)
[4] = biological target: Serine/threonine-protein kinase/endoribonuclease IRE2 (Homo sapiens, UniProt Q76MJ5)
[5] = biological target: 26S proteasome regulatory subunit 6B (Homo sapiens, UniProt P43686)
Ephrin type-B receptor 6 = biological target: T2, Ephrin type-B receptor 6 (Homo sapiens, UniProt O15197)
T2 sequence (O15197 whole entry): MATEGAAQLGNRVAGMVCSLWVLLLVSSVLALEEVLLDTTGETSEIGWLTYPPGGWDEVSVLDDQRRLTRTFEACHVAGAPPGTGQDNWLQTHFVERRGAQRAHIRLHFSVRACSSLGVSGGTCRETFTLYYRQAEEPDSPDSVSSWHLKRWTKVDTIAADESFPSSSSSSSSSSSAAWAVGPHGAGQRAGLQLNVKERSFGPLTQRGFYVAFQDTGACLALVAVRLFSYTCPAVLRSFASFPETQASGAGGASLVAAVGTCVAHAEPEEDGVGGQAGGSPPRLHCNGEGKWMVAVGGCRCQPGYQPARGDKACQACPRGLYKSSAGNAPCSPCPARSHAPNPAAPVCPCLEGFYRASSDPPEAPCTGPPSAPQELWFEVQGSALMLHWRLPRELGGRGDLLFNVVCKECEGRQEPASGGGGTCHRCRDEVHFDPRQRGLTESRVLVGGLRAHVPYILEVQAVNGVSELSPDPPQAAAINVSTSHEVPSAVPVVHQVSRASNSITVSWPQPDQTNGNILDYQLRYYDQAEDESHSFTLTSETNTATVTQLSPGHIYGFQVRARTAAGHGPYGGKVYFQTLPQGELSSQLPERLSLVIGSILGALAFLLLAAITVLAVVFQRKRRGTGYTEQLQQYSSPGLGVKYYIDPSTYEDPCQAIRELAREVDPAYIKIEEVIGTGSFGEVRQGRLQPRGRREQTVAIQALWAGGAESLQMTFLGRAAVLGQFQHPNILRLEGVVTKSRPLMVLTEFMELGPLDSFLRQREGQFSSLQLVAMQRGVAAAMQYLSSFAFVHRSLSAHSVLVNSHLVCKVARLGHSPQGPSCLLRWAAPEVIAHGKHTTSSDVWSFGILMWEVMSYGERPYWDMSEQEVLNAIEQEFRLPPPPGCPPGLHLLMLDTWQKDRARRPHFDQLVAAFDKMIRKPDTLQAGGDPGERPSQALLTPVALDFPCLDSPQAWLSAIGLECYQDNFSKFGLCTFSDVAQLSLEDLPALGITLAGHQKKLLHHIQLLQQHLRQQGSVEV

[6] = biological target: cAMP-dependent protein kinase type II-alpha regulatory subunit (Homo sapiens, UniProt P13861)
Also: in the data inactive means no Kd found up to 30 µM.

Serine/threonine-protein kinase/endoribonuclease IRE2, sequence (Q76MJ5 whole entry): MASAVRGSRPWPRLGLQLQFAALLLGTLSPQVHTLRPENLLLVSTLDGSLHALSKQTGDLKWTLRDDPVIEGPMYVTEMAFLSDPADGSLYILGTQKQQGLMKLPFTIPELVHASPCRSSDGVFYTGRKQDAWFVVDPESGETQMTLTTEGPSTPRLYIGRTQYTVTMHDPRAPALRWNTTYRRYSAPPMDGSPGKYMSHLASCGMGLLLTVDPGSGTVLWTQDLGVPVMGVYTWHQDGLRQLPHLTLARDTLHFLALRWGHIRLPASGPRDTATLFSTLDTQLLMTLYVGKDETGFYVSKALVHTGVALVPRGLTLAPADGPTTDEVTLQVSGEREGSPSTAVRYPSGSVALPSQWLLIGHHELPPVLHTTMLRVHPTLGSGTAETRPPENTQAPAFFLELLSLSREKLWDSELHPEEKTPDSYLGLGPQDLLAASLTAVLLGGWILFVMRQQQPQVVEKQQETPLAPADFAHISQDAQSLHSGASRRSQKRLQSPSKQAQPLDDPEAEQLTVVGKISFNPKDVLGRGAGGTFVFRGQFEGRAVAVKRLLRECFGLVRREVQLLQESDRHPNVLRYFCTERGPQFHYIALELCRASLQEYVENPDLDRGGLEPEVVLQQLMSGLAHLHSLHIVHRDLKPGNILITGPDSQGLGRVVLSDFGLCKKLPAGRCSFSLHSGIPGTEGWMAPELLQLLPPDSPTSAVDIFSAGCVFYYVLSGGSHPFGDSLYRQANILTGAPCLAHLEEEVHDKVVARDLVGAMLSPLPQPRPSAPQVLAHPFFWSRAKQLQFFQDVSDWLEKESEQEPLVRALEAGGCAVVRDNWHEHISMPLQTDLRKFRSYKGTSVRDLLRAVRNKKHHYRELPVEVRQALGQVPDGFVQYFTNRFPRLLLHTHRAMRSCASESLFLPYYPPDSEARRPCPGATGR
26S proteasome regulatory subunit 6B, sequence (P43686 whole entry): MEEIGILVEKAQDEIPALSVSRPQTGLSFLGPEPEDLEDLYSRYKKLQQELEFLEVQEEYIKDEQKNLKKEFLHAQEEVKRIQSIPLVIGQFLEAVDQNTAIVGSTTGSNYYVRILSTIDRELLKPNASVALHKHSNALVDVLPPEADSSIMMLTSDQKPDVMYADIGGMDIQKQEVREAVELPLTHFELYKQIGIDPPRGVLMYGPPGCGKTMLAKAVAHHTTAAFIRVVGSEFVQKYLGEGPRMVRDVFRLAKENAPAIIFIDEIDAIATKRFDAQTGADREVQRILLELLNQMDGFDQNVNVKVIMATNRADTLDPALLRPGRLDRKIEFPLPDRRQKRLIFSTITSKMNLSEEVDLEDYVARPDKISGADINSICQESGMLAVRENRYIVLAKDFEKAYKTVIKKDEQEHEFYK
cAMP-dependent protein kinase type II-alpha regulatory subunit, sequence (P13861 whole entry): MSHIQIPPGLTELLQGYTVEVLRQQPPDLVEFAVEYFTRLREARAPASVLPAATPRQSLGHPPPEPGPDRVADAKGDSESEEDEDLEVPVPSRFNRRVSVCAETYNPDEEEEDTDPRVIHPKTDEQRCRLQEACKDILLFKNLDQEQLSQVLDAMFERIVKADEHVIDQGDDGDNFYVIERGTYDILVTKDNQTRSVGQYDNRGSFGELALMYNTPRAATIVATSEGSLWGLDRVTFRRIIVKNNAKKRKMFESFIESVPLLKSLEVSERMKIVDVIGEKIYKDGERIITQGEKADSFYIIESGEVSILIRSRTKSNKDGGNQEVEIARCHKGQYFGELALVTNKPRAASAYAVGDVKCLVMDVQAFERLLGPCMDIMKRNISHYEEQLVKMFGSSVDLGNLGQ
DnaJ homolog subfamily A member 1, sequence (P31689 whole entry): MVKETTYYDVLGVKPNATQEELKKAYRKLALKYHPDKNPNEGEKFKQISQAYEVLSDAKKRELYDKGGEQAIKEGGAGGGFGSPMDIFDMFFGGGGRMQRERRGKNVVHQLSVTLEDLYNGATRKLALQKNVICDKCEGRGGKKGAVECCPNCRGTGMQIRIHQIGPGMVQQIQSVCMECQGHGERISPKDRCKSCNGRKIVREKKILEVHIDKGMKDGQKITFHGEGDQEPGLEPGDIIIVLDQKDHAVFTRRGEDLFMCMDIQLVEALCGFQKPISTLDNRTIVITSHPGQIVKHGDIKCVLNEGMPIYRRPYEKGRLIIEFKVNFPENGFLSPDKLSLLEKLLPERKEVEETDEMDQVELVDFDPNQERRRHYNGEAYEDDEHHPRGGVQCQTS

| SMILES | Kd [1] | Kd [2] | Kd [3] | Kd [4] | Kd [5] | Kd [6] | Kd (Ephrin type-B receptor 6) |
| --- | --- | --- | --- | --- | --- | --- | --- |
| Cc1c(NC(=O)OC[C@@H]2COCCN2)cn2ncnc(Nc3ccc4c(cnn4Cc4cccc(F)c4)c3)c12 [AC-480] | > 30 µM (inactive) | > 30 µM (inactive) | > 30 µM (inactive) | > 30 µM (inactive) | > 30 µM (inactive) | > 30 µM (inactive) | > 30 µM (inactive) |
| Cn1cc(-c2[nH]c3cc(NC(=O)[C@H](N)C4CCCCC4)cc4c3c2C=NNC4=O)cn1 | – | > 30 µM (inactive) | > 30 µM (inactive) | > 30 µM (inactive) | > 30 µM (inactive) | > 30 µM (inactive) | 1.53 µM |
| CN(c1ncccc1CNc1nc(Nc2ccc3c(c2)CC(=O)N3)ncc1C(F)(F)F)S(C)(=O)=O [PF-00562271] | – | – | > 30 µM (inactive) | > 30 µM (inactive) | > 30 µM (inactive) | > 30 µM (inactive) | > 30 µM (inactive) |
| C[C@]1(O)C[C@@H](c2nc(-c3ccc4ccc(-c5ccccc5)nc4c3)c3c(N)nccn32)C1 [LINSITINIB] | – | – | > 30 µM (inactive) | > 30 µM (inactive) | > 30 µM (inactive) | > 30 µM (inactive) | > 30 µM (inactive) |
| COc1cc2ncnc(Nc3ccc(O)cc3)c2cc1OC [WHI-P131] | > 30 µM (inactive) | > 30 µM (inactive) | > 30 µM (inactive) | > 30 µM (inactive) | > 30 µM (inactive) | > 30 µM (inactive) | > 30 µM (inactive) |
| NC[C@@](O)(c1ccc(Cl)cc1)c1ccc(-c2cn[nH]c2)cc1 [AT-13148] | > 30 µM (inactive) | > 30 µM (inactive) | > 30 µM (inactive) | – | > 30 µM (inactive) | > 30 µM (inactive) | > 30 µM (inactive) |
| CNC(=O)c1cc(COc2nnc(Nc3ccc(Cl)cc3)c3ccoc23)ccn1 [TELATINIB] | > 30 µM (inactive) | > 30 µM (inactive) | > 30 µM (inactive) | > 30 µM (inactive) | > 30 µM (inactive) | > 30 µM (inactive) | > 30 µM (inactive) |
| Cn1c(=O)n(-c2ccc(C(C)(C)C#N)cc2)c2c3cc(-c4cnc5ccccc5c4)ccc3ncc21 [DACTOLISIB] | – | > 30 µM (inactive) | > 30 µM (inactive) | > 30 µM (inactive) | > 30 µM (inactive) | > 30 µM (inactive) | > 30 µM (inactive) |
| COc1cc(F)c(F)c(Nc2ccc(I)cc2F)c1NS(=O)(=O)C1(C[C@H](O)CO)CC1 [REFAMETINIB] | 0.439 µM (active) | > 30 µM (inactive) | > 30 µM (inactive) | > 30 µM (inactive) | > 30 µM (inactive) | > 30 µM (inactive) | > 30 µM (inactive) |
| COc1cc2c(Oc3ccc4[nH]c(C)cc4c3F)ncnc2cc1OCCCN1CCCC1 [CEDIRANIB] | – | – | > 30 µM (inactive) | > 30 µM (inactive) | > 30 µM (inactive) | > 30 µM (inactive) | – |
| CN1CCN(c2nc(C3=C(c4c[nH]c5ccccc45)C(=O)NC3=O)c3ccccc3n2)CC1 [SOTRASTAURIN] | > 30 µM (inactive) | > 30 µM (inactive) | > 30 µM (inactive) | > 30 µM (inactive) | > 30 µM (inactive) | > 30 µM (inactive) | > 30 µM (inactive) |
| CC(C)CC(=O)Nc1[nH]nc2c1CN(C(=O)C1CCN(C)CC1)C2(C)C [PHA-793887] | > 30 µM (inactive) | > 30 µM (inactive) | > 30 µM (inactive) | > 30 µM (inactive) | > 30 µM (inactive) | > 30 µM (inactive) | > 30 µM (inactive) |
| C=CCn1c(=O)c2cnc(Nc3ccc(N4CCN(C)CC4)cc3)nc2n1-c1cccc(C(C)(C)O)n1 [ADAVOSERTIB] | – | – | > 30 µM (inactive) | > 30 µM (inactive) | > 30 µM (inactive) | > 30 µM (inactive) | 0.337 µM (active) |
| COc1cc2c(N3CCN(C(=O)Nc4ccc(OC(C)C)cc4)CC3)ncnc2cc1OCCCN1CCCCC1 [TANDUTINIB] | – | – | > 30 µM (inactive) | > 30 µM (inactive) | > 30 µM (inactive) | > 30 µM (inactive) | – |
| CN(C)C/C=C/C(=O)Nc1cc2c(Nc3ccc(F)c(Cl)c3)ncnc2cc1O[C@H]1CCOC1 [AFATINIB] | – | – | > 30 µM (inactive) | > 30 µM (inactive) | > 30 µM (inactive) | > 30 µM (inactive) | – |
| C=CC(=O)Nc1cccc(Nc2nc(Nc3ccc(N4CCN(C(C)=O)CC4)cc3OC)ncc2C(F)(F)F)c1 [ROCILETINIB] | > 30 µM (inactive) | > 30 µM (inactive) | > 30 µM (inactive) | > 30 µM (inactive) | > 30 µM (inactive) | – | > 30 µM (inactive) |
| Cn1cnc2c(F)c(Nc3ccc(Br)cc3Cl)c(C(=O)NOCCO)cc21 [SELUMETINIB] | – | – | > 30 µM (inactive) | > 30 µM (inactive) | > 30 µM (inactive) | > 30 µM (inactive) | – |
| CC[C@@](C)(Nc1ccnc(-c2c[nH]c3ncccc23)n1)C(=O)NCC(F)(F)F [DECERNOTINIB] | > 30 µM (inactive) | > 30 µM (inactive) | > 30 µM (inactive) | > 30 µM (inactive) | > 30 µM (inactive) | – | > 30 µM (inactive) |
| COc1cc(Nc2ncc(F)c(Nc3ccc4c(n3)N(COP(=O)(O)O)C(=O)C(C)(C)O4)n2)cc(OC)c1OC [FOSTAMATINIB] | > 30 µM (inactive) | – | > 30 µM (inactive) | > 30 µM (inactive) | > 30 µM (inactive) | > 30 µM (inactive) | > 30 µM (inactive) |
| CC1(C)CNc2cc(NC(=O)c3cccnc3NCc3ccncc3)ccc21 [MOTESANIB] | – | – | > 30 µM (inactive) | > 30 µM (inactive) | > 30 µM (inactive) | > 30 µM (inactive) | – |
| O=S(=O)(c1cccc2cnccc12)N1CCCNCC1 [FASUDIL] | – | > 30 µM (inactive) | > 30 µM (inactive) | > 30 µM (inactive) | > 30 µM (inactive) | > 30 µM (inactive) | > 30 µM (inactive) |
| CCN(CCCOc1ccc2c(Nc3cc(CC(=O)Nc4cccc(F)c4)n[nH]3)ncnc2c1)CCOP(=O)(O)O [BARASERTIB] | – | > 30 µM (inactive) | > 30 µM (inactive) | > 30 µM (inactive) | > 30 µM (inactive) | > 30 µM (inactive) | > 30 µM (inactive) |

Continued, in another order:

| Kd [1] | Kd [2] | Kd [3] | Kd [4] | Kd [5] | Kd [6] | SMILES | Kd (Ephrin type-B receptor 6) |
| --- | --- | --- | --- | --- | --- | --- | --- |
| > 30 µM (inactive) | > 30 µM (inactive) | > 30 µM (inactive) | > 30 µM (inactive) | > 30 µM (inactive) | > 30 µM (inactive) | NC(=O)c1ccc(N(C(N)=O)c2c(F)cccc2F)nc1-c1ccc(F)cc1F [VX-702] | > 30 µM (inactive) |
| > 30 µM (inactive) | > 30 µM (inactive) | > 30 µM (inactive) | > 30 µM (inactive) | > 30 µM (inactive) | > 30 µM (inactive) | Cc1cc(Nc2nc(N[C@@H](C)c3ncc(F)cn3)ncc2Cl)n[nH]1 [AZD-1480] | > 30 µM (inactive) |
| 1.87 µM (active) | > 30 µM (inactive) | > 30 µM (inactive) | > 30 µM (inactive) | > 30 µM (inactive) | > 30 µM (inactive) | COc1cccc(Nc2ncnn3ccc(CN4CC[C@@H](N)[C@H](O)C4)c23)c1 [BMS-690514] | > 30 µM (inactive) |
| > 30 µM (inactive) | > 30 µM (inactive) | > 30 µM (inactive) | > 30 µM (inactive) | > 30 µM (inactive) | > 30 µM (inactive) | Cn1c(=O)c(F)c(Nc2ccc(I)cc2F)c2c(=O)n(C[C@@H](O)CO)cnc21 [TAK-733] | – |
| – | – | > 30 µM (inactive) | – | > 30 µM (inactive) | – | C[C@@]1(C(=O)Nc2ccc(F)nc2)CCCN1c1nc(Nc2cc(C3CC3)n[nH]2)c2cccn2n1 [BMS-754807] | – |
